This note sets out measurements from US8101608B2, “Compounds and compositions as protein kinase inhibitors” (IRM LLC, a Delware Limited Corporation, priority 2004, dated 2012).

The structures appear in SMILES notation.

In one assay the target is T1, trkC (Homo sapiens, UniProt Q16288).
T1 construct: fused on or other part: P41212 (Transcription factor ETV6)
The assay can be described thus: Inhibition of cellular ETV6-NTRK3 dependent proliferation (Ba/F3 EN cells). The note with it: MTT, read-out: IC50 for TrkC. Format: cell-based, murine. Here is the method: The murine cell line used is the Ba/F3 hematopoietic progenitor cell line transformed with ETV6-NTRK3 cDNA (Ba/13 EN). These cells are maintained in RPMI/10% fetal calf serum (RPMI/FCS) supplemented with penicillin 50 μg/mL, streptomycin 50 μg/mL and L-glutamine […]. Untransformed Ba/F3 cells are similarly maintained with the addition of 10% of WEHI conditioned medium as a source of IL3.

In the next assay the target is T2, Aurora-A (Homo sapiens, UniProt O14965).
T2 construct: purchased Upstate (KinaseProfiler panel)
T2 sequence (O14965 1-403): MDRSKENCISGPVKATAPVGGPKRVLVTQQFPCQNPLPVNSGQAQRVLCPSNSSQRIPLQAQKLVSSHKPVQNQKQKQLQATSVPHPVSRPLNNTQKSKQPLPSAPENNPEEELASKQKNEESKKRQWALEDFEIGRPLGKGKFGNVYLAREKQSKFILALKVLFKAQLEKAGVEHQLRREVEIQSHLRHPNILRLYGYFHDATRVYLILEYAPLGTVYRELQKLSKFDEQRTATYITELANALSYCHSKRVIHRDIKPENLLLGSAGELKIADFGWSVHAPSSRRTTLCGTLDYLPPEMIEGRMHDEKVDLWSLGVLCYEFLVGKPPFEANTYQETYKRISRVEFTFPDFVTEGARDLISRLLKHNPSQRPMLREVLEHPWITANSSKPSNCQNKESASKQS
The assay is described as follows: Kinase inhibition, Upstate KinaseProfiler radio-enzymatic filter binding assay. Format: biochemical. As to the method:
(§1) Percentage inhibition is calculated for each reaction.

The next assay has as its target T3, c-RAF (Homo sapiens, UniProt P04049).
T3 construct: "active kinase (0.001-0.01 Units); fused on or other part: Probably an N-terminal GST tag (vendor's product)
The description is as above. The format is biochemical. Here is the method:
as §1

T3 sequence (P04049 whole entry Y340D/Y341D, form open, the tested form may be a part): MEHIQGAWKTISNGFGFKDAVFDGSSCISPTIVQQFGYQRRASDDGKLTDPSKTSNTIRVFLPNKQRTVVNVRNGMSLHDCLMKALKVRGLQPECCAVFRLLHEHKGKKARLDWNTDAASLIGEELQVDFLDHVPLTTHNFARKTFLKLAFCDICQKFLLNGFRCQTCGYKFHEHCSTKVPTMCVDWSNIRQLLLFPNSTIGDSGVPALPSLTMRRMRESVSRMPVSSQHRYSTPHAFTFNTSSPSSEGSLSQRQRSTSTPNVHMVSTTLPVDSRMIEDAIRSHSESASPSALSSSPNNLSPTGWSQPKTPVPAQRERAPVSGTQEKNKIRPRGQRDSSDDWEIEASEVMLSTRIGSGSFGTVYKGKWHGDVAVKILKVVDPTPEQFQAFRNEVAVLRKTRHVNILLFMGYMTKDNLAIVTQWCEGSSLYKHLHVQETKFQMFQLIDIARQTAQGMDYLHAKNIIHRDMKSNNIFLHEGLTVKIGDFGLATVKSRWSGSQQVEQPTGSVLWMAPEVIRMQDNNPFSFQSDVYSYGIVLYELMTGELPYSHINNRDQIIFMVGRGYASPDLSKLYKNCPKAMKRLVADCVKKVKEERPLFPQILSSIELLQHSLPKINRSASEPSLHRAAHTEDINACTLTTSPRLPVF
T1 sequence (Q16288 whole entry, change not shown, the tested form may be a part): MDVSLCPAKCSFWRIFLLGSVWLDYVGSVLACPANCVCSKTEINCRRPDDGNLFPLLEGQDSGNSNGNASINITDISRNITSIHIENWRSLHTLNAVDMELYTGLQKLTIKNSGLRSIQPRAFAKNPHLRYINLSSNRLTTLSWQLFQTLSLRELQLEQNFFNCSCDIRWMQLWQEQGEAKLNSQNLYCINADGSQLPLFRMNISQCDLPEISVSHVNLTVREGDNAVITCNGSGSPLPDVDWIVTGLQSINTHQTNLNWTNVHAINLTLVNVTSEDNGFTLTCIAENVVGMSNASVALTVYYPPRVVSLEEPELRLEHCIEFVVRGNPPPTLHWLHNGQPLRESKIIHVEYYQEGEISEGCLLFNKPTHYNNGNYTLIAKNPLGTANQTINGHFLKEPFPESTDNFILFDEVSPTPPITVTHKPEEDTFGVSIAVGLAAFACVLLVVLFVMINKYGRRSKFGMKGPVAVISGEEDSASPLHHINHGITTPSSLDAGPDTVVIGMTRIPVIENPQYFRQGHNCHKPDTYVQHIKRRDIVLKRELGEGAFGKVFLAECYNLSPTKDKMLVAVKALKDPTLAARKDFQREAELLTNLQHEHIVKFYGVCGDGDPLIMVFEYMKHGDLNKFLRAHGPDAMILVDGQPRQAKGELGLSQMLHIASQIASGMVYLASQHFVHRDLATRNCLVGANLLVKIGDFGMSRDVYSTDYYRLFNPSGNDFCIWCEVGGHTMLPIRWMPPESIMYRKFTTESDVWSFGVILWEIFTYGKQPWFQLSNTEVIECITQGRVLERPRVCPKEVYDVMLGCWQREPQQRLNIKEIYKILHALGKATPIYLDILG

Consider `Cc1cn(-c2cc(C(=O)Nc3cccc(Nc4ccc5c(c4)NC(=O)/C5=C/c4ccc[nH]4)c3)cc(C(F)(F)F)c2)cn1` [Example 1], for which the GI50 at trkC stood at 16.7 nM. In addition, the IC50 (as a rule, the point on the concentration scale where inhibition reaches its midpoint) at Aurora-A is 15 nM; at c-RAF, 116 nM.
